Test results from US7704986B2, “Vitamin D3 analogues for the prevention and treatment of bone disorders” (K.U. Leuven Research and Development, priority 2004, dated 2010).

How the values were obtained:
[1] = biological target: T1, human vitamin D binding protein (hDBP) (Homo sapiens, UniProt P02774); assay: Affinity for human vitamin D binding protein; settings: hDBP 0.18 μM, 4° C. 3 hours; 1,25(OH)2D3 = 100
T1 sequence (P02774 17-474): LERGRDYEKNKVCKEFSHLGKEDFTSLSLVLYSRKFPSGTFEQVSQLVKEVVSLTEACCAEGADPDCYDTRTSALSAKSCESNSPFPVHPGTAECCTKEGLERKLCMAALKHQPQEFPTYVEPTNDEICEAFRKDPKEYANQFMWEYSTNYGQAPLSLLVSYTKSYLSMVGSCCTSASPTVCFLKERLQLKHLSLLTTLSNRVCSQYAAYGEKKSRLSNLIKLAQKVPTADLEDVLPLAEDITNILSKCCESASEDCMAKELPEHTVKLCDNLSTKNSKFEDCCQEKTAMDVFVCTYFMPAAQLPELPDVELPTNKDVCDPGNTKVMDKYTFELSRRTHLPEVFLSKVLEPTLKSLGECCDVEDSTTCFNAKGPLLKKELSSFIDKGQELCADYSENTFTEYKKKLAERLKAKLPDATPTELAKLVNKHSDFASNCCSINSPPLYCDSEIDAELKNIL
Protocol: Binding of 1α,25(OH)2D3 analogues to hDBP was performed at 4° C. […] Phase separation was then obtained by the addition of 0.5 ml of cold dextran-coated charcoal.

[2] = tested on: OVX or SHAM C3H female mice; assay: Restoration of bone loss in ovariectomized mice, oral treatment started 3 weeks after surgery; assay type: in vivo; settings: 8 weeks
Protocol: 12-week-old C3H female mice were subjected to bilateral ovariectomy (OVX) or sham surgery SHAM (time point −3). The OVX and SHAM animals were treated with the vitamin D analogue MV2 (1 μg/kg three times per week) or vehicle (arachis oil) by oral gavage. Dosing was started 3 weeks after surgery (time point 0) and was continued for 8 weeks (time point 8). The number of mice per group is 8 to 10.
Before the surgery and 3 weeks after ovariectomy in vivo, measurements were performed in order to determine bone mineral density (BMD), bone mineral content (BMC) of total body and spine by DEXA. Before the surgery and 3 weeks after ovariectomy, serum was collected to measure calcium levels by a standard […] method (Synchron CX4, Beckman Instruments, USA). The animals were weighted regularly during the experimental period to monitor their overall health and well being. After 4 weeks treatment, serum was again collected and biochemical parameters were determined. At the end of the experiment (8 weeks of treatment) bone mineral density (BMD) and bone mineral content (BMC) of total body and spine were measured by DEXA and serum was collected to determine serum calcium levels. […] Tibiae were used for histomorphometric analysis, and femurs for measurement of cortical and trabecular volumetric density and geometry by peripheral quantitative computed tomography (PQCT) ex vivo. […]

DBP (relative affinity) [1]: 7%
hypercalcemic effects (serum calcium) ([2]; 1 pg/kg three times per week (so in the source)): no hypercalcemic effects
SMILES: C[C@H](CC#CC(O)(C(F)(F)F)C(F)(F)F)[C@@]1(C)CC[C@@H](/C=C/C=C2C[C@@H](O)C[C@H](O)C2)C1(C)C [MV2, (1R,3R)-5-((E)-3-((1S,3R)-3-((1R)-6,6,6-trifluoro-5-hydroxy-1-methyl-5-trifluoromethyl-3-hexynyl)-2,2,3-trimethylcyclopentyl)-2-propenylidene)cyclohexane-1,3-diol]
body weight during treatment ([2]; 1 μg/kg p.o. three times per week): no animals lost weight
